In US20240150360A1 (THE REGENTS OF THE UNIVERSITY OF MICHIGAN, priority 2021, published 2024):
pIC50: −log10 of the molar value.

Legend:
CBP = target: T1, CBP (Homo sapiens, UniProt Q92793); experiment: CBP degradation in 22Rv1 cells (5 h); format: cell-based; settings: 22Rv1 cells, 5 h; for Dmax: 22Rv1, 5 h, read-out: CBP Degradation (22Rv1, 5 h) DCmax
T1 construct: endogenous in cells; host or cells: 22Rv1 (ATCC CRL-2505) human prostate cancer cells
Excerpt: (§1) Biological Assays. […] Cells with 3-8 passages after purchase were used in experiments.

HL60 = experiment: Cell growth inhibition in HL60; format: cell-based; settings: Homo sapiens, HL-60, HL60 cells; read-out: Cell Growth Inhibition (IC50) HL60
22Rv1 cells = experiment: Cell growth inhibition assay (CellTiter-Glo) in 22Rv1; format: cell-based, human; settings: Homo sapiens, 22Rv1, 96 h, 22Rv1 cells, 96 h incubation; read-out: Cell Growth Inhibition (IC50) 22Rv1
In short: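 22Rv1 prostate cancer cells (passages 3-8, DMEM with 10% FBS) were seeded at 4000 cells/well with compound, 3-fold dilutions from 10 μM final. After 96 h at 37° C and 5% CO2, growth was read by CellTiter-Glo 2.0 luminescence.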

P300 = target: T2, P300 (Homo sapiens, UniProt Q09472); experiment: P300 degradation in 22Rv1 cells (5 h); format: cell-based; settings: 22Rv1 cells, 5 h; for Dmax: read-out: P300 Degradation (22Rv1, 5 h) DCmax
T2 construct: endogenous in cells; host or cells: 22Rv1 (ATCC CRL-2505) human prostate cancer cells
Excerpt: as §1

T2 sequence (Q09472 whole entry): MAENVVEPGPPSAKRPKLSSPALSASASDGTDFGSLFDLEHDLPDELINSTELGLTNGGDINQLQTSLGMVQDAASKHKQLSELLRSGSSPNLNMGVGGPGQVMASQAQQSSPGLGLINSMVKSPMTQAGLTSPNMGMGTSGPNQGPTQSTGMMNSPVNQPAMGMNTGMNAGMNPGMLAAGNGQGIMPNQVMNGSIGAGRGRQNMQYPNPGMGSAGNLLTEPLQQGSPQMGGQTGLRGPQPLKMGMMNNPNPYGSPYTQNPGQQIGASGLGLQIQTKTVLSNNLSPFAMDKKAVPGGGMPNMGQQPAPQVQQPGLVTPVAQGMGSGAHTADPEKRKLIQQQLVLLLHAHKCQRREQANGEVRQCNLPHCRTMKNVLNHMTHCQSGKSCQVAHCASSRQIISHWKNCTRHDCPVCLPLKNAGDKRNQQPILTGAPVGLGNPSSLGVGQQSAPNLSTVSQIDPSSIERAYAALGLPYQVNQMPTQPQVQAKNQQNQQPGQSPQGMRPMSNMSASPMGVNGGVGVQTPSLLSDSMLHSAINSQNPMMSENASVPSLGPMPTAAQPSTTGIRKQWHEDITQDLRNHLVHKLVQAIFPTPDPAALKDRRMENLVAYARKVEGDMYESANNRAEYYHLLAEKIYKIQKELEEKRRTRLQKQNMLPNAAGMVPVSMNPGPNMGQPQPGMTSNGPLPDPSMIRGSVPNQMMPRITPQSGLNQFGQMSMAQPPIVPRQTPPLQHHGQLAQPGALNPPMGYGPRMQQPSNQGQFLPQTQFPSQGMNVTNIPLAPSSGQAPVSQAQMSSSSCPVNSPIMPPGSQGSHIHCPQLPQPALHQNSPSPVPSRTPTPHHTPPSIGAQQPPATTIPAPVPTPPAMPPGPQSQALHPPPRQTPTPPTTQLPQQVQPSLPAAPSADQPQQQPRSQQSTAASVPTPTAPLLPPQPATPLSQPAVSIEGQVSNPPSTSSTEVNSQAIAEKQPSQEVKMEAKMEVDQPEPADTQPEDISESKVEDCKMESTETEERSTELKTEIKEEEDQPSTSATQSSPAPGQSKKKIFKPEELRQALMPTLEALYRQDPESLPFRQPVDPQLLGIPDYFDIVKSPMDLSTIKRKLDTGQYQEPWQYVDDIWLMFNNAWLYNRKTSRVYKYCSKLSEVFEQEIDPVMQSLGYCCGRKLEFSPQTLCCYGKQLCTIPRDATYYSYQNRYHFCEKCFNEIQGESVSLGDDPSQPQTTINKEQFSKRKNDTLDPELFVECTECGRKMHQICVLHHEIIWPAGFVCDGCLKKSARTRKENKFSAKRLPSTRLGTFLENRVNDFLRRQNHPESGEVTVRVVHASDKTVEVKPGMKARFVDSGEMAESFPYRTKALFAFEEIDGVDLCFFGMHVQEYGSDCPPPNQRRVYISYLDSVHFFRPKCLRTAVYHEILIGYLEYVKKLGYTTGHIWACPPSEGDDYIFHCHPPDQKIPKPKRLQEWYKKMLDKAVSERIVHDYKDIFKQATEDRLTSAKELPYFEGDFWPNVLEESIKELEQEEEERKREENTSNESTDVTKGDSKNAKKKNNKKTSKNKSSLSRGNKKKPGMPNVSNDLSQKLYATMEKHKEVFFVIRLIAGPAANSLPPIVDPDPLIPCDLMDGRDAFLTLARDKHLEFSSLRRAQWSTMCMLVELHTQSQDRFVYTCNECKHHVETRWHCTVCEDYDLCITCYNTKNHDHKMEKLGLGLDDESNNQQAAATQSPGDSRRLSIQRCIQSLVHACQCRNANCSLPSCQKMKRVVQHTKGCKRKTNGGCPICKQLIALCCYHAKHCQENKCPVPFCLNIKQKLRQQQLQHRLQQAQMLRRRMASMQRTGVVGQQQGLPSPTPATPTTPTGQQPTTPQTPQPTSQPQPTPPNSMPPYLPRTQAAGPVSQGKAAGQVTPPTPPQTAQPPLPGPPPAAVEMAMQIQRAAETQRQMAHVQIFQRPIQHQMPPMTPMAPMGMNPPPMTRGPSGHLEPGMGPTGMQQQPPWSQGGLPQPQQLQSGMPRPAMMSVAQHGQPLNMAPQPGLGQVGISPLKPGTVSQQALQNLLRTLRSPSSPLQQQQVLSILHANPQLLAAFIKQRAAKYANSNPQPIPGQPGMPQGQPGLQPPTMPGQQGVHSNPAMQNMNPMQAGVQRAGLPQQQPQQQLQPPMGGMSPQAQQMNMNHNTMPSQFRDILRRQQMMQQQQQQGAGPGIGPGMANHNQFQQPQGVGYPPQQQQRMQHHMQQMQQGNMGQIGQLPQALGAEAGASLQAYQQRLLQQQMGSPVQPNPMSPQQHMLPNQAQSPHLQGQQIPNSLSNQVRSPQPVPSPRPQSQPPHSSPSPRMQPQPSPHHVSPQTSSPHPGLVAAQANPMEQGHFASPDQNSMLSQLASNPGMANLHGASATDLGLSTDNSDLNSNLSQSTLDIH
T1 sequence (Q92793 whole entry): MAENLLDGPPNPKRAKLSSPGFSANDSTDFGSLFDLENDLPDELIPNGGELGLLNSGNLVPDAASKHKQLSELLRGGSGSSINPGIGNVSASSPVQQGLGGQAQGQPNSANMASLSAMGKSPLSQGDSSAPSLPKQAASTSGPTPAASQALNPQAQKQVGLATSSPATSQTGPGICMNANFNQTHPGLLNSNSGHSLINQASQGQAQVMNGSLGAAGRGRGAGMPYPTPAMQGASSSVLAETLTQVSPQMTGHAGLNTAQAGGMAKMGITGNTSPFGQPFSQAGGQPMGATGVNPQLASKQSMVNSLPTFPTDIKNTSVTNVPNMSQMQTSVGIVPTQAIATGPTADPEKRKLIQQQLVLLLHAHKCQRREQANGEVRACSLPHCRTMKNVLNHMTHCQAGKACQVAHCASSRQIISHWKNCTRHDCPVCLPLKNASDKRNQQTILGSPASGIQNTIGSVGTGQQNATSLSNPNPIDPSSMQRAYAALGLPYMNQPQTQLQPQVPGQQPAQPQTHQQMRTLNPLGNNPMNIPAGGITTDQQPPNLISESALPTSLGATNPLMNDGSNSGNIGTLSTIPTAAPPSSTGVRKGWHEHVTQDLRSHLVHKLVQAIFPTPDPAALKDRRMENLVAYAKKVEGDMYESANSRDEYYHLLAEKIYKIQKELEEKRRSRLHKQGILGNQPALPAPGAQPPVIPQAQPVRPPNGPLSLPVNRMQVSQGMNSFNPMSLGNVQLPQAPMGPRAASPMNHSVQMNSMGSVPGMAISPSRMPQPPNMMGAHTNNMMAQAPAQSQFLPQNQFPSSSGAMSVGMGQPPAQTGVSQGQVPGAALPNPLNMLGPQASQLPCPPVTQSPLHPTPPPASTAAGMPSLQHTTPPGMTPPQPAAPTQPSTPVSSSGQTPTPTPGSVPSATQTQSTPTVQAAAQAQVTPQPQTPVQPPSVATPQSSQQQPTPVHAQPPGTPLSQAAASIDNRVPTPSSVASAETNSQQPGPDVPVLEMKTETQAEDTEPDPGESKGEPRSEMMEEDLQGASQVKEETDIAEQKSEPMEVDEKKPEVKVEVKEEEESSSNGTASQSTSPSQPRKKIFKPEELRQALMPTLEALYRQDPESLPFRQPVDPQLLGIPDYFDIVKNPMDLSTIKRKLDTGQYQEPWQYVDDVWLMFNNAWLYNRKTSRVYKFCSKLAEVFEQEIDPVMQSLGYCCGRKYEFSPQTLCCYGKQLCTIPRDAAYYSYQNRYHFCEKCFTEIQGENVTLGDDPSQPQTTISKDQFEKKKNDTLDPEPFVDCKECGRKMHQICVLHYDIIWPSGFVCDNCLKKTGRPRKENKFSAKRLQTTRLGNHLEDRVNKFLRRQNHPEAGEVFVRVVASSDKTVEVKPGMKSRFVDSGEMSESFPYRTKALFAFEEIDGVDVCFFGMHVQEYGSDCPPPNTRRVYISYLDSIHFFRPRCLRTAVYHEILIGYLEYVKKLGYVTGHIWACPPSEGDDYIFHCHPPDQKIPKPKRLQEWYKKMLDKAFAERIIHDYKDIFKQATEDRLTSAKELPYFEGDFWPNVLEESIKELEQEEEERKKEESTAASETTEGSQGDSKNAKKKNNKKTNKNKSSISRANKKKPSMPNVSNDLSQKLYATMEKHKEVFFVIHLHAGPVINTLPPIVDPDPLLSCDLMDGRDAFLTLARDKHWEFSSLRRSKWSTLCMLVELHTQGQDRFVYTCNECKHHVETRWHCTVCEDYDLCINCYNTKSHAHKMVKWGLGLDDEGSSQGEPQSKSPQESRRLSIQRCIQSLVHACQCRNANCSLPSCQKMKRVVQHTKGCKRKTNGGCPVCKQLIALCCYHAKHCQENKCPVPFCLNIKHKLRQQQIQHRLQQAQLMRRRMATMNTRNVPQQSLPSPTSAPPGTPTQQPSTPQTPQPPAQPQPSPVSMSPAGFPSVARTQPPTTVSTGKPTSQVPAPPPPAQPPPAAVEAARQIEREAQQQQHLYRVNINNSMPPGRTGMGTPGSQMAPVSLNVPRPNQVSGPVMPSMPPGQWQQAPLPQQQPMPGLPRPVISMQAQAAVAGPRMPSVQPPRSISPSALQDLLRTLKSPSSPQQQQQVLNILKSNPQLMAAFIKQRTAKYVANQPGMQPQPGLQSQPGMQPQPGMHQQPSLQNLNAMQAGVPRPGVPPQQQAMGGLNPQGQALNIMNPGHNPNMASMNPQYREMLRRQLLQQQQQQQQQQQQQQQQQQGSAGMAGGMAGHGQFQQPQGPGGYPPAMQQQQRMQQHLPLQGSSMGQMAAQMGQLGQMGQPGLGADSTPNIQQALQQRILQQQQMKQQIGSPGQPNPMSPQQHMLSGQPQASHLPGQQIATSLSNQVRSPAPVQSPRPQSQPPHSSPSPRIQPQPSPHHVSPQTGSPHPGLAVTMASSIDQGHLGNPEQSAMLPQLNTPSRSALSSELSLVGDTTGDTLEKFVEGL

Row | Compound | Dmax (CBP) [%] | DC50 (CBP) [nM] | pIC50 (HL60) | pIC50 (22Rv1 cells) | DC50 (P300) [nM] | Dmax (P300) [%]
1 | CC(=O)N1CCc2c(c(N3CCCc4cc5c(cc43)C(C)CCC5)nn2C2CCN(C(=O)CN3Cc4cc5c(cc4C3)C(=O)N(C3CCC(=O)NC3=O)C5=O)CC2)C1 (stereo not drawn) [CP-079, 6-(2-(4-(5-acetyl-3-(9-methyl-3,4,6,7,8,9-hexahydrobenzo[g]quinolin-1(2H)-yl)-4,5,6,7-tetrahydro-1H-pyrazolo[4,3-c]pyridin-1-yl)piperidin-1-yl)-2-oxoethyl)-2-(2,6-dioxopiperidin-3-yl)-6,7-dihydropyrrolo[3,4-f]isoindole-1,3(2H,5H)-dione] | > 90 | < 100 | > 7.00 | > 6.00 | < 100 | > 70
2 | Cc1noc(C)c1-c1ccc2c(c1)nc([C@@H]1CCCC(=O)N1c1ccc(F)c(F)c1)n2C1CCN(C(=O)CN2Cc3cc4c(cc3C2)C(=O)N(C2CCC(=O)NC2=O)C4=O)CC1 (stereo partly drawn) [CP-061, 6-(2-(4-(2-((S)-1-(3,4-difluroophenyl)-6-oxopiperidin-2-yl)-5-(3,5-dimethylisoxazol-4-yl)-1H-benzo[d]imidazol-1-yl)piperidin-1-yl)-2-oxoethyl)-2-(2,6-dioxopiperidin-3-yl)-6,7-dihydropyrrolo[3,4-f]isoindole-1,3(2H,5H)-dione] | > 50 | < 100 | < 5.00 | < 5.00 | > 1000 | < 50
3 | CC(=O)N1CCc2c(c(N3CCCc4cc(-c5cnn(C)c5)c(C(F)F)cc43)nn2C2CCN(CC3Cc4cc5c(cc4C3)C(=O)N(C3CCC(=O)NC3=O)C5=O)CC2)C1 (stereo not drawn) [CP-052, 6-((4-(5-acetyl-3-(7-(difluoromethyl)-6-(1-methyl-1H-pyrazol-4-yl)-3,4-dihydroquinolin-1(2H)-yl)-4,5,6,7-tetrahydro-1H-pyrazolo[4,3-c]pyridin-1-yl)piperidin-1-yl)methyl)-2-(2,6-dioxopiperidin-3-yl)-6,7-dihydrocyclopenta[f]ioindole-1,3(2H,5H)-dione] | > 70 | < 10 | > 6.00 | > 7.00 | < 10 | > 70
